# Measurements from patent publication US20230146455A1, “TREATMENT OF INFLAMMATORY DISEASES WITH PEPTIDES AND PHARMACEUTICAL COMPOSITIONS” (Yuyu Pharma, Inc., priority 2020, published 2023).
# Where “and” joins values, the source holds several entries; their conditions need not be identical. Identical values can stand only once. Where a SMILES comes first, the peptide text is derived from it. [ ]: non-standard residue; d: D form. Hyp = O=C(O)[C@@H]1C[C@@H](O)CN1
# Experiments:
# Format in all cases: cell-based, human
# [1] = system: IL-10; assay: Example 8 main study Luminex, LPS hPBMCs: IL-10; conditions: for IL-10 Concentration: individual replicates; for IL-10 Concentration (pg/ml), Mean: mean of replicates
# Experimental: (§1) Human PBMCs were pretreated with YY-101, YDE-011, YDE-043 or reference compound; Xiidra® at various concentration (ranging from […] to 500 nM) for 2 h before stimulation. An equal volume of 0.5% DMSO was used as a vehicle control. Then, the cells were treated with LPS at 5 ug/ml, which was selected based on the pilot study. The supernatants from treated cells were harvested at 24 h and placed in a 96 well for Luminex cytokine & chemokine profiling using a Luminex 200 multiplex assay (Luminex; R&D system, USA).
# (§2) The main study arm with triplicate wells per group in a 24-well plate: • 1. Blank • 2. PBMC: 0.5% DMSO • 3. PBMC+LPS (5 ug/ml) • 4. PBMC+YY-101 500 nM • 5. PBMC+YY-101 50 nM • 6. PBMC+YY-101 5 nM • 7. PBMC+YY-101 0.5 nM • 8. PBMC+LPS (5 ug/ml)+Xiidra® 500 nM • 9. PBMC+LPS (5 ug/ml)+Xiidra® 50 nM • 10. PBMC+LPS (5 ug/ml)+Xiidra® 5 nM • 11. PBMC+LPS (5 ug/ml)+Xiidra® 0.5 nM • 12. PBMC+LPS (5 ug/ml)+Xiidra® 0.05 nM • 13. PBMC+LPS (5 ug/ml)+Xiidra® 0.005 nM • 14. PBMC+LPS (5 ug/ml)+YY-101 500 nM • 15. PBMC+LPS (5 ug/ml)+YY-101 50 nM • 16. PBMC+LPS (5 ug/ml)+YY-101 5 nM • 17. PBMC+LPS (5 ug/ml)+YY-101 0.5 nM • 18. PBMC+LPS (5 ug/ml)+YY-101 0.05 nM • 19. PBMC+LPS (5 ug/ml)+YY-101 0.005 nM • 20. PBMC+LPS (5 ug/ml)+YDE-011 500 nM • 21. PBMC+LPS (5 ug/ml)+YDE-011 50 nM • 22. PBMC+LPS (5 ug/ml)+YDE-011 5 nM • 23. PBMC+LPS (5 ug/ml)+YDE-011 0.5 nM • 24. PBMC+LPS (5 ug/ml)+YDE-011 0.05 nM • 25. PBMC+LPS (5 ug/ml)+YDE-011 0.005 nM • 26. PBMC+LPS (5 ug/ml)+YDE-043 500 nM • 27. PBMC+LPS (5 ug/ml)+YDE-043 50 nM • 28. PBMC+LPS (5 ug/ml)+YDE-043 5 nM • 29. PBMC+LPS (5 ug/ml)+YDE-043 0.5 nM • 30. PBMC+LPS (5 ug/ml)+YDE-043 0.05 nM • 31. PBMC+LPS (5 ug/ml)+YDE-043 0.005 nM
# (§3) Multiplex assay was used to measure 30 cytokines and chemokines. The 1:200 diluted cell supernatant and serial dilution of the standard were dispensed into a 96 well plate at 50 ul/well. Then, the pre-mixed cocktail of antibody-coated magnetic beads was dispensed at 50 ul/well and incubated at room temperature for 2 h in a horizontal orbital microplate shaker at 800±500 rpm. The beads were washed using a magnetic device to prevent loss. The biotin-antibody was dispensed in 50 ul of each well and incubated at room temperature for 1 h in a shaker at 800±500 rpm. After washing, streptavidin-PE was added at 50 ul/well and incubated at room temperature for 30 min in a shaker under the same conditions. Finally, after washing, wash buffer (100 ul/well) was added to the plate and incubated in a shaker for 2 min. The Luminex™ 200 setting were set according to the manufacturer's protocol. The data was calculated with a standard five-parameter logistic nonlinear regression analysis of the data (xPonent software 4.2, USA). Results were presented as concentration (ng/ml or pg/ml).
# [2] = system: MMP-3; assay: Example 8 main study Luminex, LPS hPBMCs: MMP-3; conditions: for MMP-3 Concentration: single replicates
# Experimental: as §1, §2, §3
# [3] = system: CCL3/MIP-1 alpha; assay: Example 8 main study Luminex, LPS hPBMCs: CCL3/MIP-1 alpha
# Experimental: as §1, §2, §3
# [4] = PBMC + LPS(5 ug/ml) + test article 0.005 nM
# [5] = PBMC + LPS(5 ug/ml) + test article 0.05 nM
# [6] = PBMC + LPS(5 ug/ml) + test article 0.5 nM
# [7] = PBMC + LPS(5 ug/ml) + test article 5 nM
# [8] = PBMC + LPS(5 ug/ml) + test article 50 nM
# [9] = PBMC + LPS(5 ug/ml) + test article 500 nM
# [10] = at as low as 5 μM, LPS 5 ug/mL 24 hrs
# [11] = PBMC + LPS(5 ug/ml) + YDE011 0.005 nM
# [12] = PBMC + LPS(5 ug/ml) + YDE011 0.05 nM
# [13] = PBMC + LPS(5 ug/ml) + YDE011 0.5 nM
# [14] = PBMC + LPS(5 ug/ml) + YDE011 5 nM
# [15] = PBMC + LPS(5 ug/ml) + YDE011 50 nM
# [16] = PBMC + LPS(5 ug/ml) + YDE011 500 nM
# [17] = PBMC + LPS(5 ug/ml) + test article 0.005 nM, Mean
# [18] = PBMC + LPS(5 ug/ml) + test article 0.005 nM, single replicates
# [19] = PBMC + LPS(5 ug/ml) + test article 0.05 nM, Mean
# [20] = PBMC + LPS(5 ug/ml) + test article 0.05 nM, single replicates
# [21] = PBMC + LPS(5 ug/ml) + test article 0.5 nM, Mean
# [22] = PBMC + LPS(5 ug/ml) + test article 0.5 nM, single replicates
# [23] = PBMC + LPS(5 ug/ml) + test article 5 nM, Mean
# [24] = PBMC + LPS(5 ug/ml) + test article 5 nM, single replicates
# [25] = PBMC + LPS(5 ug/ml) + test article 50 nM, Mean
# [26] = PBMC + LPS(5 ug/ml) + test article 50 nM, single replicates
# [27] = PBMC + LPS(5 ug/ml) + test article 500 nM, Mean
# [28] = PBMC + LPS(5 ug/ml) + test article 500 nM, single replicates
compound,measurement,setting,value
CC(C)C[C@H](NC(=O)CNC(=O)[C@H](CC(C)C)NC(=O)[C@H](CCC(N)=O)NC(=O)CNC(=O)[C@@H]1C[C@@H](O)CN1)C(=O)N[C@@H](C)C(=O)NCC(=O)N1CCC[C@H]1C(=O)N[C@@H](CCCCN)C(=O)O [YDE-011] (H-[Hyp]GQLGLAGPK-OH),IL-10 Concentration,[1]; [4],624.7 pg/mL and 409.5 pg/mL and 531.7 pg/mL
same,"IL-10 Concentration (pg/ml), Mean",[1]; [4],521.9 pg/mL
same,IL-10 Concentration,[1]; [5],729.2 pg/mL and 611.5 pg/mL and 651.0 pg/mL
same,"IL-10 Concentration (pg/ml), Mean",[1]; [5],663.9 pg/mL
same,IL-10 Concentration,[1]; [6],409.5 pg/ml (2×) and 297.6 pg/ml
same,"IL-10 Concentration (pg/ml), Mean",[1]; [6],372.2 pg/mL
same,IL-10 Concentration,[1]; [7],181.1 pg/mL and 210.8 pg/mL and 381.9 pg/mL
same,"IL-10 Concentration (pg/ml), Mean",[1]; [7],257.9 pg/mL
same,IL-10 Concentration,[1]; [8],518.2 pg/mL and 845.0 pg/mL and <2.59 pg/mL
same,"IL-10 Concentration (pg/ml), Mean",[1]; [8],681.6 pg/mL
same,IL-10 Concentration,[1]; [9],883.3 pg/mL and <2.59 pg/mL and 225.5 pg/mL
same,"IL-10 Concentration (pg/ml), Mean",[1]; [9],554.4 pg/mL
same,LPS-induced IL-10 (in words),[1]; [10],significantly reduced
same,"MMP-3 Concentration, Mean",[2]; [11],7336.4 pg/mL
same,MMP-3 Concentration,[2]; [11],7512.0 pg/mL and 7323.6 pg/mL and 7173.5 pg/mL
same,"MMP-3 Concentration, Mean",[2]; [12],7638.4 pg/mL
same,MMP-3 Concentration,[2]; [12],7474.3 pg/mL and 7928.9 pg/mL and 7512.0 pg/mL
same,"MMP-3 Concentration, Mean",[2]; [13],7136.1 pg/mL
same,MMP-3 Concentration,[2]; [13],7248.5 pg/mL and 7098.6 pg/mL and 7061.2 pg/mL
same,"MMP-3 Concentration, Mean",[2]; [14],6802.1 pg/mL
same,MMP-3 Concentration,[2]; [14],6282.7 pg/mL and 6800.1 pg/mL and 7323.6 pg/mL
same,"MMP-3 Concentration, Mean",[2]; [15],6735.1 pg/mL
same,MMP-3 Concentration,[2]; [15],7248.5 pg/mL and 7474.3 pg/mL and 5482.5 pg/mL
same,"MMP-3 Concentration, Mean",[2]; [16],6625.8 pg/mL
same,MMP-3 Concentration,[2]; [16],7776.9 pg/mL and 5374.6 pg/mL and 6725.8 pg/mL
same,LPS-induced MMP3 (in words),[2]; [10],significantly reduced
same,CCL3/MIP-1 alpha Concentration,[3]; [17],30631.2 pg/mL
same,CCL3/MIP-1 alpha MFI,[3]; [17],40.8
same,CCL3/MIP-1 alpha Concentration,[3]; [18],31818.4 pg/mL and 28790.7 pg/mL and 31284.6 pg/mL
same,CCL3/MIP-1 alpha MFI,[3]; [18],43.0 and 37.5 and 42.0
same,CCL3/MIP-1 alpha Concentration,[3]; [19],34293.4 pg/mL
same,CCL3/MIP-1 alpha MFI,[3]; [19],47.8
same,CCL3/MIP-1 alpha Concentration,[3]; [20],34390.9 pg/mL and 32865.8 pg/mL and 35623.4 pg/mL
same,CCL3/MIP-1 alpha MFI,[3]; [20],48.0 and 45.0 and 50.5
same,CCL3/MIP-1 alpha Concentration,[3]; [21],30465.1 pg/mL
same,CCL3/MIP-1 alpha MFI,[3]; [21],40.5
same,CCL3/MIP-1 alpha Concentration,[3]; [22],31284.6 pg/mL and 29639.8 pg/mL and 30470.7 pg/mL
same,CCL3/MIP-1 alpha MFI,[3]; [22],42.0 and 39.0 and 40.5
same,CCL3/MIP-1 alpha Concentration,[3]; [23],27362.3 pg/mL
same,CCL3/MIP-1 alpha MFI,[3]; [23],35.2
same,CCL3/MIP-1 alpha Concentration,[3]; [24],25497.0 pg/mL and 26119.3 pg/mL and 30470.7 pg/mL
same,CCL3/MIP-1 alpha MFI,[3]; [24],32.0 and 33.0 and 40.5
same,CCL3/MIP-1 alpha Concentration,[3]; [25],28334.6 pg/mL
same,CCL3/MIP-1 alpha MFI,[3]; [25],37.3
same,CCL3/MIP-1 alpha Concentration,[3]; [26],32865.8 pg/mL and 21122.8 pg/mL and 31015.1 pg/mL
same,CCL3/MIP-1 alpha MFI,[3]; [26],45.0 and 25.5 and 41.5
same,CCL3/MIP-1 alpha Concentration,[3]; [27],27851.5 pg/mL
same,CCL3/MIP-1 alpha MFI,[3]; [27],36.8
same,CCL3/MIP-1 alpha Concentration,[3]; [28],34390.9 pg/mL and 19244.9 pg/mL and 29918.7 pg/mL
same,CCL3/MIP-1 alpha MFI,[3]; [28],48.0 and 23.0 and 39.5
same,LPS-induced CCL-3 (in words),[3]; [10],significantly reduced
